Data on four molecules can be found in article PMC5303825, “The ancient CYP716 family is a major contributor to the diversification of eudicot triterpenoid biosynthesis” (Nature Communications, 2017).

Common to all, as to assay type: cell-based
Test [1] deals with T1, CYP716A113v1 (Aquilegia coerulea, UniProt A0A1I9Q601).
T1 construct: full-length ORF from cDNA, expressed in Saccharomyces cerevisiae with tomato SlCAS and M. truncatula reductase MTR1
T1 sequence (A0A1I9Q601 1-485): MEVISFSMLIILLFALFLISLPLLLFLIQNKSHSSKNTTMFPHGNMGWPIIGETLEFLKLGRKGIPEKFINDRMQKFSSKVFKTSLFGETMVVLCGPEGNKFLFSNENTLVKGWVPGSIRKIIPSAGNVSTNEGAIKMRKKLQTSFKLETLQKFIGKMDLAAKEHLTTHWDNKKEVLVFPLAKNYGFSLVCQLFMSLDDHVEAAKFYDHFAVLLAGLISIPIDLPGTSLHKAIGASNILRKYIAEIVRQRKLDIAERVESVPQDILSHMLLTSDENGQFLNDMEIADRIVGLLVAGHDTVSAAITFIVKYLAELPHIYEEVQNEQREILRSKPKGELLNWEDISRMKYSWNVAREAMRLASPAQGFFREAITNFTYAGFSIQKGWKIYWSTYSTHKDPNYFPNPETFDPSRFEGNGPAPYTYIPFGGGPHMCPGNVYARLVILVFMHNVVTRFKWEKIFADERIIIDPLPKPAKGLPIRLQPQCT
As to the kind of experiment: GC-MS of products in spent medium of engineered yeast. As to conditions: co-expressed SlCAS and MTR1; putative hydroxy-cycloartenol product.

The target of test [2] is T2, CYP716C11 (Centella asiatica, UniProt A0A1I9Q5Y7).
T2 construct: gene MAA45; full-length ORF from cDNA library, expressed in Saccharomyces cerevisiae with GgBAS (or CaDDS), CYP716A83 and M. truncatula reductase MTR1; T2A polyprotein CYP716A83-CYP716C11
T2 sequence (A0A1I9Q5Y7 1-475): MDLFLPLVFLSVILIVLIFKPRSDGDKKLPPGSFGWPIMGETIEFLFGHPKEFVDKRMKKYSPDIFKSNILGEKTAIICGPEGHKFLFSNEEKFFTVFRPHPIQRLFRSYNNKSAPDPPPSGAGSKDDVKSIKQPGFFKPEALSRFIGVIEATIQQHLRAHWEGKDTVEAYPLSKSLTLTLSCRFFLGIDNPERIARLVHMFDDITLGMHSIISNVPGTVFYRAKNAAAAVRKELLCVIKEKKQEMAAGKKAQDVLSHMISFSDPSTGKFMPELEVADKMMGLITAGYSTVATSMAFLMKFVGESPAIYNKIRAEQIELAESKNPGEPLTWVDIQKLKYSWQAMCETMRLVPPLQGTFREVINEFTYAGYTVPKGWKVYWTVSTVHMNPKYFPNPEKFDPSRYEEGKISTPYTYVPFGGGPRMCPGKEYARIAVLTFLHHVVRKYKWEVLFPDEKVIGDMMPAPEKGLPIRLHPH
The description is as above. Conditions: co-expressed GgBAS, CYP716A83 and MTR1; product maslinic acid.

In test [3] the target is T3, CYP716E41 (Centella asiatica, UniProt A0A1I9Q5Y6).
T3 construct: full-length ORF from cDNA library, expressed in Saccharomyces cerevisiae with GgBAS, CYP716A83 and M. truncatula reductase MTR1
T3 sequence (A0A1I9Q5Y6 1-477): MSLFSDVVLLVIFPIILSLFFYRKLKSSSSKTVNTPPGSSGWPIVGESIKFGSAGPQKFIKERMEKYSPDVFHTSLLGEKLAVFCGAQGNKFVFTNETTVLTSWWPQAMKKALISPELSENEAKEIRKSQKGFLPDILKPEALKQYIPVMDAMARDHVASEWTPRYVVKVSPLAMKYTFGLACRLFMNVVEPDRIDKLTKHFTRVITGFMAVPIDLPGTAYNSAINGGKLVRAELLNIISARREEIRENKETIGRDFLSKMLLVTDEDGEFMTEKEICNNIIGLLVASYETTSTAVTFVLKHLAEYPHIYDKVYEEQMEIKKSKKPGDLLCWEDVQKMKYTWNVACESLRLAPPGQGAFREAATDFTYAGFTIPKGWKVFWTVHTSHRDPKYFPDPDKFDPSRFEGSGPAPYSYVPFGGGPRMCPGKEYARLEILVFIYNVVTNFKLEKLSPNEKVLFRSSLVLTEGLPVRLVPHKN
The test is described as above. As to conditions: co-expressed GgBAS, CYP716A83 and MTR1; putative product 6β-hydroxy oleanolic acid.

For test [4], the target named is T4, CYP716A83 (Centella asiatica, UniProt A0A1I9Q5Y4).
T4 construct: full-length ORF from cDNA library, expressed in Saccharomyces cerevisiae with GgBAS (or CaDDS) and M. truncatula reductase MTR1; T2A polyprotein with CYP716C11 in some strains
Described as above.

For test [5], the target named is T5, CYP716A110 (Aquilegia coerulea, UniProt A0A1I9Q5Z9).
T5 construct: full-length ORF from cDNA, expressed in Saccharomyces cerevisiae with GgBAS and M. truncatula reductase MTR1
T5 sequence (A0A1I9Q5Z9 1-480): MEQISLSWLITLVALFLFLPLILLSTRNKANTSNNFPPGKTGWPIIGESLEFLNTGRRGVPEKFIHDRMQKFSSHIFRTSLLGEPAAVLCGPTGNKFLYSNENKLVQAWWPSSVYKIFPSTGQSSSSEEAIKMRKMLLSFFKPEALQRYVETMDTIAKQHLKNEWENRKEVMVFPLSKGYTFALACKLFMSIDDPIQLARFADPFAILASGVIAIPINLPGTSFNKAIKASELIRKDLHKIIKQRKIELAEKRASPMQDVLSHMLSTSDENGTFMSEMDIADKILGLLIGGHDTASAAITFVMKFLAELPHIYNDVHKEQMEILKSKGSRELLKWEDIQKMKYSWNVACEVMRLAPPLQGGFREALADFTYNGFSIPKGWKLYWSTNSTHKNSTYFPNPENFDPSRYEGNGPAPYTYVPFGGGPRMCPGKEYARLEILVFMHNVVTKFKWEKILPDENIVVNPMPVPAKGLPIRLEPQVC
The test is described as above. As to conditions: co-expressed GgBAS and MTR1; products erythrodiol, oleanolic acid.

The target in test [6] is T6, CYP716A141 (Platycodon grandiflorus, UniProt A0A1I9Q5Z0).
T6 construct: full-length ORF (RACE), expressed in Saccharomyces cerevisiae with GgBAS and M. truncatula reductase MTR1; b33 once misprints C. asiatica
T6 sequence (A0A1I9Q5Z0 1-481): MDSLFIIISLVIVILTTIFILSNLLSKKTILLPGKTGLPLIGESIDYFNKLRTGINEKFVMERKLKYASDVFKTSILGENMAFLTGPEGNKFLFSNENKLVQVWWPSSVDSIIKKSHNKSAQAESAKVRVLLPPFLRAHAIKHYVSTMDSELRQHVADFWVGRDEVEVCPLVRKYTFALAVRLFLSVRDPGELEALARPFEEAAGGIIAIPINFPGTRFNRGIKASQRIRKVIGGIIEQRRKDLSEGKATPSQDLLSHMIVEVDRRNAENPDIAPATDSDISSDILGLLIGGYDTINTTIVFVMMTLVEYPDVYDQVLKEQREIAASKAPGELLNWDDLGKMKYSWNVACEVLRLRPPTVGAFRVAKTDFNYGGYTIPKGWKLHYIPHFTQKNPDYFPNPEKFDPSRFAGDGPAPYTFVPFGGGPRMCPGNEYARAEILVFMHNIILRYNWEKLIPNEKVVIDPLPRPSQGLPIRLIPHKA
In words: GC-MS of engineered yeast medium; product NMR. As to conditions: co-expressed GgBAS and MTR1; product 16β-hydroxy β-amyrin (minor erythrodiol, oleanolic acid).

In test [7] the target is T7, CYP716A140 (Platycodon grandiflorus, UniProt A0A1I9Q5Y8).
T7 construct: full-length ORF (RACE), expressed in Saccharomyces cerevisiae with GgBAS and M. truncatula reductase MTR1
T7 sequence (A0A1I9Q5Y8 1-479): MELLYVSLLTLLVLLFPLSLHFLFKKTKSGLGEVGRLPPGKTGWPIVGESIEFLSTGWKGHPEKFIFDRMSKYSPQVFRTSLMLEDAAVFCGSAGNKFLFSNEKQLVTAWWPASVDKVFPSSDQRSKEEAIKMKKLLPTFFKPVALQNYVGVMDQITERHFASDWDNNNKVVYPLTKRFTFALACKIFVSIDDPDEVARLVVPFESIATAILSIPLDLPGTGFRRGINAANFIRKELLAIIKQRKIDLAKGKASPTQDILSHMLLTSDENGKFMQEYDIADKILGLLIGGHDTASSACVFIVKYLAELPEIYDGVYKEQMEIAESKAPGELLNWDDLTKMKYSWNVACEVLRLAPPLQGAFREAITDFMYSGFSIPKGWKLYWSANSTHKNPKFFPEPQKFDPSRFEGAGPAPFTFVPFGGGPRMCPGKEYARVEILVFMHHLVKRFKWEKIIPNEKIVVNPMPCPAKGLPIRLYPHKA
In words: GC-MS of products in spent medium of engineered yeast. As to conditions: co-expressed GgBAS and MTR1; products of C-28 oxidation: erythrodiol, oleanolic acid.

In test [8] the target is T8, CYP716A86 (Centella asiatica, UniProt A0A1I9Q5Y3).
T8 construct: full-length ORF from cDNA library, expressed in Saccharomyces cerevisiae with GgBAS and M. truncatula reductase MTR1
T8 sequence (A0A1I9Q5Y3 1-482): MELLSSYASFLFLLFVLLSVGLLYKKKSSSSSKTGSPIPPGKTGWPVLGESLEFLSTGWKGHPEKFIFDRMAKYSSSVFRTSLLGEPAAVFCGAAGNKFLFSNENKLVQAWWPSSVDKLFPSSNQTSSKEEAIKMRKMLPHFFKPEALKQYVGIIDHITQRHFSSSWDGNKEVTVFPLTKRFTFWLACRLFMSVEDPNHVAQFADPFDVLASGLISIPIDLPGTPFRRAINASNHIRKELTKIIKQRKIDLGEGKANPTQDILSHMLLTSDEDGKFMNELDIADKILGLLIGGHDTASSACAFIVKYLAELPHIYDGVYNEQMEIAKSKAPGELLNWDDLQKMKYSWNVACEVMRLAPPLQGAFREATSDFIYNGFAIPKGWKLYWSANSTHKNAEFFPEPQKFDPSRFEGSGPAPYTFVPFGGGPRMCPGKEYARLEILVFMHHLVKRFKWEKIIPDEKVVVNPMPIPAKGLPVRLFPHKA
The description is as above. As to conditions: co-expressed GgBAS and MTR1; products erythrodiol, oleanolic aldehyde, oleanolic acid.

T4 sequence (A0A1I9Q5Y4 entry or part of it): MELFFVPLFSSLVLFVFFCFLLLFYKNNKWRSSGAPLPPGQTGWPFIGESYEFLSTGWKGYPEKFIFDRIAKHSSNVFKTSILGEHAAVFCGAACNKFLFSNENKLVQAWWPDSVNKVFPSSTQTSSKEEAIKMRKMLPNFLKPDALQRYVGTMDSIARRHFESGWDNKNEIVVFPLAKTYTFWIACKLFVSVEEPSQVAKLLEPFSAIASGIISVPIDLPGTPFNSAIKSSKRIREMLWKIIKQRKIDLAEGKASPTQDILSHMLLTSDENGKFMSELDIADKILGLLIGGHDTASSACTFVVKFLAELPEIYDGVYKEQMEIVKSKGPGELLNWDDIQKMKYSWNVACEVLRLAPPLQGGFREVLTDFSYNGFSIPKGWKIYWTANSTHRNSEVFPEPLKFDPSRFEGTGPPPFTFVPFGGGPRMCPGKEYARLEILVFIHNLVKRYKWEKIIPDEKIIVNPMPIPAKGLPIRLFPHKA

Consider `CC(C)=CCC[C@@H](C)[C@H]1CC[C@@]2(C)[C@@H]3CC[C@H]4C(C)(C)[C@@H](O)CC[C@@]45C[C@@]35CC[C@]12C` [cycloartenol], for which, in test [1], the “GC-MS of products in spent medium of engineered yeast” value (shortened to “GC-MS of products”) is “dependent on both SlCAS and CYP716A113v1”.
Take `CC1(C)CC[C@]2(C(=O)O)CC[C@]3(C)C(=CC[C@@H]4[C@@]5(C)CC[C@H](O)C(C)(C)[C@@H]5CC[C@]43C)[C@@H]2C1` [oleanolic acid]: the “GC-MS of products” value in test [2] is “CYP716C11 and CYP716E41 converted oleanolic acid to maslinic acid”; in test [3], “CYP716C11 and CYP716E41 converted oleanolic acid to maslinic acid”.
In the case of `C[C@H]1[C@H](C)CC[C@]2(C)CC[C@]3(C)C(=CC[C@@H]4[C@@]5(C)CC[C@H](O)C(C)(C)[C@@H]5CC[C@]43C)[C@H]12` [α-amyrin], the “GC-MS of products” value in test [4] (co-expressed CaDDS and MTR1 (with CYP716E41 or CYP716C11), product ursolic acid) was “CYP716A83, CYP716C11 and CYP716E41 can function on both oleanane and ursane backbones”.
On to `CC1(C)CC[C@]2(C)CC[C@]3(C)C(=CC[C@@H]4[C@@]5(C)CC[C@H](O)C(C)(C)[C@@H]5CC[C@]43C)[C@@H]2C1` [β-amyrin], for which the “GC-MS of products” value in test [5] was “CYP716A110 revealed new peaks corresponding to the erythrodiol and oleanolic acid standards”; in test [7], “CYP716A140-expressing yeast showed three new peaks corresponding to C-28 oxidation”; in test [4] (co-expressed GgBAS and MTR1, in vivo, products erythrodiol, oleanolic aldehyde, oleanolic acid), “CYP716A83 and CYP716A86 catalyse the three-step oxidation of β-amyrin at the C-28 position”; in test [8] it was “CYP716A83 and CYP716A86 catalyse the three-step oxidation of β-amyrin at the C-28 position”. In test [6], the “GC-MS of engineered yeast medium; product NMR” value is listed as “CYP716A141 appears to be a multifunctional β-amyrin oxidase”.
